The structures appear in SMILES notation. Several values for one entry are separate records, joined by “and”; a condition that tells them apart may be missing. Equal entries are not always repeated. Activity calls are given as the source filed them.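 Rule for the calls: active = compounds giving half or more protection of infected cells from virus-caused growth loss, again on retest; inactive = the rest.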 Where a SMILES comes first, the peptide text is derived from it. The star is where a group is joined. Cbz = O=C(OCc1ccccc1)*

The subject of the test is CEM cells HIV-1 protection, formazan growth assay. Kind of test: NCI AIDS Antiviral Assay. The settings on record: for IC50: measured here: growth of uninfected CEM cells. The essentials:
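Steps: treat uninfected and HIV-1-infected human CEM cells at five drug levels; quantify growth by soluble formazan; retest any compound reaching 50% protection; classify actives from the retest.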

As for `CC(C)CCC[C@@H](C)C1CCC2[C@@H]3CC(O)C4C[C@@H](OS(=O)(=O)O)CC[C@]4(C)C3CC[C@@]21C` (stereo partly specified), the EC50 is > 49 µM and the IC50 is 24.5 µM.
For `CCCCCCCCCCCCCCCCCCOC(COP(=O)(O)OCC1OC(n2cc(F)c(=O)[nH]c2=O)CC1O)COP(=O)(O)OCC1OC(n2cc(C)c(=O)[nH]c2=O)CC1N=[N+]=[N-]` (stereo unspecified) the same measures were > 5.75 µM and 0.0501 µM.
For `O=c1[nH]c(=O)n(C2CC(O)C(CO)O2)cc1Oc1ccccc1` (stereo unspecified) the same measures were > 200 µM and > 200 µM.
For `CC(=O)OCC(OC(C)=O)C(OC(C)=O)C(/C=N\Nc1nc2ccccc2c(=O)[nH]1)OC(C)=O` (stereo unspecified) the same measures were > 200 µM and > 200 µM.
With `COC(=O)c1c(C(=O)OC)c(-c2ccccc2)n(-c2ccccc2)c(=O)c1-c1ccccc1`, the outcome was inactive.
For the compound `O=C(Nc1ccc(C2=NCCCN2)cc1)c1ccc(NC(=O)c2ccc(C3=NCCCN3)cc2)cc1`, the EC50 was > 200 µM and the IC50 turned out to be 67.6 µM.
For `CCOC(=O)C1(C)CC12CCCCC2` (stereo unspecified) the same measures were > 200 µM and > 200 µM.
For `CCC(=N\N=C(N)N)/C(CC)=N/N=C(N)N` the same measures were > 562 µM and > 562 µM.
As for `C=C1C(=O)OC2/C=C(\C)C3OC3/C=C(/C(=O)OC)C(O)C(OC(=O)C3(C)OC3C)C12` (stereo unspecified), the EC50 is > 120 µM and the IC50 was 0.302 µM.
For `CC1=Nn2c(nnc2-c2ccc(N)cc2)NC(C)(C)C1` the same measures were > 933 µM and > 933 µM.
For `O=C(NCCCCN1CC2CCCC2C1)C(C1CCCCC1)C1CCCCC1` (stereo unspecified) the same measures were > 200 µM and 10.7 µM.
For `Cc1cc(Cl)ccc1NC(=O)C1C(=O)C(=O)N(c2ccc(Cl)cc2C)C1=O` (stereo unspecified), the result was inactive.
For `C1CCC2(CC1)SSSC1(CCCCC1)SS2`, the EC50 is > 100 µM and the IC50 was > 100 µM.
Take `CCOC(=O)CCC(NC(=O)CNC(=O)CNC(=O)C(CCC(=O)OCC)NC(=O)C(CCC(=O)OCC)NC(=O)C(CCC(=O)OCC)NC(=O)OCc1ccccc1)C(=O)NC(CCC(=O)OCC)C(=O)NC(CCC(=O)OCC)C(=O)OCC` (stereo unspecified) (Cbz-E(OEt)E(OEt)E(OEt)GGE(OEt)E(OEt)E(OEt)-OEt; configuration not given here): the EC50 was > 200 µM and the IC50 is > 200 µM.
`N#Cc1c(N)nc(-c2ccc(Cl)cc2)c2c1-c1ccccc1S(=O)(=O)CC2`: the EC50 was > 100 µM and the IC50 was > 100 µM.
As for `Cc1ccccc1-c1c(N)nc(NC#N)nc1C(=O)Nc1ccccc1`, the result was inactive.
Consider `CCC12CCCN(Cc3ccccc3)C1c1c(n(C)c3ccccc13)C(C(=O)OC)C2` (stereo unspecified), for which the EC50 was > 32.4 µM and the IC50 is > 32.4 µM.
For the compound `S=C1c2ccccc2NC(=NC2CCCC2)C2CSCN12` (stereo unspecified), the EC50 was > 200 µM and the IC50 came to 148 µM.
For `CC(=O)N(CC(=O)Nc1ccc(S(N)(=O)=O)cc1)C(C)C` the same measures were > 200 µM and > 200 µM.
For `O=c1c(O)c(-c2ccc(Cl)cc2)oc2ccccc12` the same measures were > 200 µM and 4.07 µM.
For `CC(C)(C)CP(=S)(CCP(CCP(=S)(CC(C)(C)C)CC(C)(C)C)CCP(=S)(CC(C)(C)C)CC(C)(C)C)CC(C)(C)C` the same measures were > 12.3 µM and > 12.3 µM.
Turning to `COc1cc(OC)c(/C=C2\N=C(C)N(Nc3nnc(NN4C(=O)/C(=C/c5c(OC)cc(OC)cc5OC)N=C4C)c4ccccc34)C2=O)c(OC)c1`, the result was inactive.
As to `Cc1nn(C(=O)Cc2ccccc2)c2c1C(c1ccc3ccccc3c1O)SC(N)=N2` (stereo unspecified), the EC50 was > 200 µM and the IC50 was determined as 24 µM.
For `COc1ccc(N=Nc2c(C)c(C#N)c(=S)n(C3OC(COC(C)=O)C(OC(C)=O)C(OC(C)=O)C3OC(C)=O)c2C)cc1` (stereo unspecified) the same measures were > 200 µM and > 200 µM.
In the case of `CCOP(=O)(C/C=C/CN(C(=O)OC(C)(C)C)C(=O)OC(C)(C)C)OCC`, the outcome was inactive.
In the case of `COc1ccc(Cl)cc1C(=O)c1cc(Cl)cc(S(=O)(=O)N(C)C)c1OC`, the EC50 is > 9.12 µM and the IC50 came to 8.13 µM.
For `O=C1CCc2cc3c(cc21)CC1(Cc2ccccc2C1)C3` the same measures were > 200 µM and 4.57 µM.
With `O=c1[nH]c2cc([N+](=O)[O-])ccc2nc1/C=C(\O)c1ccc(Cl)cc1`, the EC50 was > 100 µM and the half-maximal inhibitory concentration (IC50) is 87.1 µM.
For `COc1ccc(-c2c(N)n(-c3cccc(C(=O)O)c3)c(=O)c3cc([N+](=O)[O-])ccc23)cc1` the same measures were > 200 µM and 129 µM.
For `CCCCNC(=S)SSSC(=S)NCCCC` the same measures were > 200 µM and 2.75 µM.
As for `CC(C)CCCCCCCCCCCCC(=O)NCC(=O)NC1C(O)C(O)C(Nc2ncnc3nc[nH]c23)OC1C(O)CO` (stereo unspecified), the EC50 is > 0.417 µM and the IC50 was 0.00224 µM.
Take `CC1(C)CCC2=C(O1)C(=O)c1ccccc1C2=O`: the EC50 was > 200 µM; the IC50 is 18.2 µM and 14.5 µM.
In the case of `CN(C)C=Nc1c2ccccc2nc2ccccc12`, the EC50 is > 200 µM and the IC50 came out at 2.45 µM.
For `COC(=O)C1=C(C(=O)OC)C2C(C)=CC(C)=CN2C(C(=O)OC)=C1C(=O)OC` (stereo unspecified) the same measures were > 200 µM and > 200 µM.
As to `CCOP(=O)(OCC)/C(F)=C/c1ccccc1`, the EC50 was > 200 µM and the half-inhibitory concentration (IC50) was > 200 µM.
In the case of `COc1cc2c(c3oc(=O)ccc13)[C@@H](OC(=O)C13CCC(C)(C(=O)O1)C3(C)C)[C@@H](OC(=O)C13CCC(C)(C(=O)O1)C3(C)C)C(C)(C)O2` (stereo partly specified), the EC50 is 0.324 µM and the IC50 was > 200 µM.
With `COC1/C=C/OC2(C)Oc3c(C)c(O)c4c(O)c(c(/C=N/Nc5ccc([N+](=O)[O-])cc5[N+](=O)[O-])c(O)c4c3C2=O)NC(=O)C(C)=C/C=C/C(C)C(O)C(C)C(O)C(C)C(OC(C)=O)C1C` (stereo unspecified), the EC50 was > 200 µM and the IC50 came out at 7.08 µM.
For `C[S+](C)c1ccccc1` the same measures were > 1050 µM and 457 µM.
For `CC(=O)NC1C(CO)OC(n2cnc([N+](=O)[O-])c2C(N)=O)C1O` (stereo unspecified) the same measures were > 200 µM and > 200 µM.
For `COC(=O)C(=O)C(C(=O)C(=O)Nc1ccc(C)cc1C)c1nc2ccc(Cl)cc2[nH]c1=O` (stereo unspecified) the same measures were > 57.5 µM and 47.9 µM.
With `CCCC(=O)OC1C(OC(=O)CCC)C(OC(=O)CCC)C(OC(=O)CCC)C(OC(=O)CCC)C1OC(=O)CCC` (stereo unspecified), the EC50 is > 417 µM and the IC50 is > 417 µM.
In the case of `CC(=O)c1ccc(NC(=O)/C(CC(=O)/C=C/c2ccccc2)=N/NC(N)=S)cc1`, the EC50 was > 63.1 µM and the IC50 is > 63.1 µM.
With `c1ccc2c(c1)c1ccccc1n2-n1c2ccccc2c2ccccc21`, the EC50 was > 200 µM and the IC50 worked out at 132 µM.
For `CCOc1ccc(/C=C/C(=O)c2ccccc2)cc1` the same measures were > 200 µM and 34.7 µM.
Turning to `CN1COCc2cc3cc4c(cc3nc21)OCCO4`, the EC50 is > 200 µM and the IC50 was 97.7 µM.
Regarding `COCCCNC1=C(C#N)C(=O)NC2(CCCC2)S1`, the EC50 was > 525 µM and the IC50 is > 525 µM.
`COc1ccc(-n2[nH]c3c(cnc4ccccc43)c2=O)cc1`: the EC50 was > 200 µM and the IC50 was > 200 µM.
Regarding `COc1ccccc1NC(=O)/C(=C/c1ccccc1)C(C)=O`, the EC50 was > 24.5 µM and the IC50 was 18.6 µM.
For `CC(C)CCCC(C)C1CCC2C3CCC(=O)C(C)(CCCNCCO)C3CCC12C` (stereo unspecified), the EC50 was > 20 µM and the IC50 was 2.88 µM.
For `CN(C)c1ccc(C(=C2C=CC(=[N+](C)C)C=C2)c2ccc(N(C)C)cc2)cc1`, the outcome was inactive.
As to `O=C(O)CCC(NC(=O)c1ccc(OCc2nc3cc(C(F)(F)F)ccc3nc2-c2ccccc2)cc1)C(=O)O` (stereo unspecified), the EC50 is > 200 µM and the IC50 is > 200 µM.
Turning to `CN1CCN(CCCCN2c3ccccc3Sc3ccc(C(=O)c4ccccc4)cc32)CC1`, the EC50 was > 100 µM and the IC50 came out at 4.47 µM.
For `O=C(O)C(F)(F)C(F)(F)C(F)(F)C(F)(F)C(F)(F)C(F)(F)C(F)(F)C(F)(F)F` the same measures were > 200 µM and 105 µM.
For `COC(=O)N/N=C(/c1nc2ccc([N+](=O)[O-])cc2[nH]c1=O)C(O)c1ccc(OC)c(OC)c1` (stereo unspecified) the same measures were > 110 µM and > 110 µM.
For `O=C1c2ccccc2C(=O)N1CSS(=O)(=O)O` the same measures were > 200 µM and > 200 µM.
With `C=CCC1(C(=O)OC)CCC/C(=N\O)C1` (stereo unspecified), the EC50 was > 64.6 µM and the IC50 was > 64.6 µM.
Consider `O=[N+]([O-])c1ccccc1S(=O)NCc1c(Cl)cccc1Cl` (stereo unspecified), for which the EC50 was > 200 µM and the IC50 was > 200 µM.
Consider `O=C(CSc1nnc(Cc2ccccc2)o1)Nc1cccc(Cl)c1`, for which the EC50 was > 100 µM and the IC50 was 49 µM.
For `CC(=O)OCC1OC(n2c(=S)n(-c3ccccc3)c(=O)c3cc(Br)cc(Br)c32)C(OC(C)=O)C(OC(C)=O)C1OC(C)=O` (stereo unspecified) the same measures were > 18.2 µM and > 18.2 µM.
As for `CC(C)(Oc1ccc(C2C[C@H]2Cl)cc1)C(=O)O` (stereo partly specified), the EC50 is > 200 µM and the IC50 was > 200 µM.
With `CCCCC(/C=N/Nc1ccc([N+](=O)[O-])cn1)CC` (stereo unspecified), the EC50 was > 200 µM and the IC50 was > 200 µM.
Regarding `CN(C)CC(CO)(CN(C)C)CN(C)C`, the EC50 is > 200 µM and the IC50 is > 200 µM.
For the compound `COC(=O)C(C(=O)C(=O)Nc1c(Cl)cc([N+](=O)[O-])cc1Cl)c1csc(-n2nc(C3=CCCCC3)cc2-c2ccccc2)n1` (stereo unspecified), the EC50 was > 107 µM and the half-inhibitory concentration (IC50) was > 107 µM.
On to `COc1ccc(Nc2nc(C#N)c(N)s2)cc1`, for which the EC50 was > 490 µM and the IC50 turned out to be 117 µM.
For `Cc1c(N=Nc2ccc(Cl)cc2)c(-c2ccccc2)n(C2OC(CO)C(O)C(O)C2O)c(=S)c1C#N` (stereo unspecified) the same measures were > 200 µM and 37.2 µM.
`COc1ccc(N(C(=O)Nc2ccc(Cl)c(Cl)c2)c2ccccc2)cc1`: the EC50 is > 200 µM and the half-maximal inhibitory concentration (IC50) is 126 µM.

For the origin of these results see PubChem BioAssay AID179 (DTP/NCI, 2004).
